# Calls of active or inactive are those of the source.
# Experiments:
# Cytochrome P450 3A4 = Cytochrome P450 3A4 (Homo sapiens, UniProt P08684); conditions: Potency;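 further: confirmatory qHTS run detecting inhibitors and substrates of CYP3A4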
# [1] = blockers of bursicon-stimulated LGR2 cAMP reporter – cell-based, HEK293, CRE-luciferase reporter, cherry pick, set 2, dose response (AID 743343); assay type: functional;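 further: transfected cells were stimulated with diluted bursicon conditioned medium after compound addition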
# [2] = target: T1, Luciferin 4-monooxygenase (Photinus pyralis, UniProt P08659); test: Counter Screen for Luciferase-based Assay Positives. [Related pubchem assays: 620, 618, 411 ]
# HT-1080 = test: HT1080 cell viability loss – fluorescence readout (AID 620); assay type: functional, cell-based; conditions: Homo sapiens
# [3] = blockade of melanocortin 4 receptor signaling – cell-based, plate reader, cherry pick, counter-screen for LGR2 antagonist project, dose response (AID 743444); assay type: functional;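 further: transfected HEK 293 cells stimulated with alpha-MSH peptide; potency of inhibitors of the alpha-MSH evoked signal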
# [4] = target: T1, Luciferin 4-monooxygenase; test: inhibition of purified Photinus pyralis luciferase – biochemical, luminescence, dose response (AID 1891)
# [5] = target: T2, Zinc finger protein mex-5 (Caenorhabditis elegans, UniProt Q9XUB2); test: potency of MEX-5 RNA-binding blockers – biochemical, C. elegans, fluorescence polarization, dose response (AID 1960)
# T2 sequence (Q9XUB2 whole entry): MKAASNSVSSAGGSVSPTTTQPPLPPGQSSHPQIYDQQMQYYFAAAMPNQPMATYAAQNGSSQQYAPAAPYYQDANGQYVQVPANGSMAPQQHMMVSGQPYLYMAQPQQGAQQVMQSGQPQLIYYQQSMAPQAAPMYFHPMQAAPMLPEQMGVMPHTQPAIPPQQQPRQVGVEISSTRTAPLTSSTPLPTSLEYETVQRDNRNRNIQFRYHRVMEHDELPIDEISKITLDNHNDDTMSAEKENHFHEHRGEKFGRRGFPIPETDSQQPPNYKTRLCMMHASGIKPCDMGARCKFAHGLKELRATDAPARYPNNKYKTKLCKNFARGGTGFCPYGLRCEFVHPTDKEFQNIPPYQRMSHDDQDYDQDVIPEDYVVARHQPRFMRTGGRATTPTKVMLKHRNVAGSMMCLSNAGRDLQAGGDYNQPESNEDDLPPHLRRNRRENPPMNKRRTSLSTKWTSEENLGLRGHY
# [6] = target: T3, Lysine-specific demethylase 4C (Homo sapiens, UniProt Q9H3R0); test: inhibition of JMJD2C H3K9me3 demethylation – biochemical, DELFIA europium, cherry-picked samples, dose response (AID 488835); assay type: functional
# T3 sequence (Q9H3R0 whole entry): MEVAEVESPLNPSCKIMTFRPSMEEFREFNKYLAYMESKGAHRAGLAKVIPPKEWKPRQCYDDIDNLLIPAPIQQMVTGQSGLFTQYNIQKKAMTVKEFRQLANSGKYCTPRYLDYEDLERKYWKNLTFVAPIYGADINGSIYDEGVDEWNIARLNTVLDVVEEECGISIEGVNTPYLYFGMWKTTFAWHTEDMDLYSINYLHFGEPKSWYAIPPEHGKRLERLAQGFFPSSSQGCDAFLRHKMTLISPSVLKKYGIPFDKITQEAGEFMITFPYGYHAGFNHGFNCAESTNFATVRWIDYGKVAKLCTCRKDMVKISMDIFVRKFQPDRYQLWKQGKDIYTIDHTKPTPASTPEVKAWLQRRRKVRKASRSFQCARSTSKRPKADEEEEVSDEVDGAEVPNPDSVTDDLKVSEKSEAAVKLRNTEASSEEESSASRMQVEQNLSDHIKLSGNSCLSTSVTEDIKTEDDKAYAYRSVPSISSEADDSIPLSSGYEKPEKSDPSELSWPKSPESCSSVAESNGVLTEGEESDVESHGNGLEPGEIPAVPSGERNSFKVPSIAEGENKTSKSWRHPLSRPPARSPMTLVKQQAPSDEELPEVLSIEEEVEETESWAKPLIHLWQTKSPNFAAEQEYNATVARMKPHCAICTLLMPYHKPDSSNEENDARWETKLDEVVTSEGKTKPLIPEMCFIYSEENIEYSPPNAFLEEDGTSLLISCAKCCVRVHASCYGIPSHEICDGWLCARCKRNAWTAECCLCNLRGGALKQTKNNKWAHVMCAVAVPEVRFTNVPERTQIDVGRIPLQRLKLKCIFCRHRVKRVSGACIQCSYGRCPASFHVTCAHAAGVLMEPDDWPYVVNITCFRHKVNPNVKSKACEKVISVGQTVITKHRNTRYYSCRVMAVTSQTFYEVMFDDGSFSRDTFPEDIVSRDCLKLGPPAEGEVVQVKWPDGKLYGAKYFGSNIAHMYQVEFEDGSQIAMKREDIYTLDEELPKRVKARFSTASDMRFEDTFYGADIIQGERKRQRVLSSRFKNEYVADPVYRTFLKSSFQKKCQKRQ
# [7] = Luminescence Cell-Based Dose Confirmation HTS to Identify Inhibitors of Platelet Dense Granule Release. [Related pubchem assays: 1663 (Primary HTS), 1678 (Summary of Project)]; assay type: functional
# [8] = target: T4, RNA-binding protein pos-1 (Caenorhabditis elegans, UniProt G5EF15); test: disruptors of C. elegans POS-1 RNA interaction – biochemical, fluorescence polarization, dose response (AID 1964);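 further: purified POS-1 fused to maltose binding protein made in E. coli; potency of compounds blocking POS-1 binding to fluorescent RNA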
# T4 sequence (G5EF15 whole entry): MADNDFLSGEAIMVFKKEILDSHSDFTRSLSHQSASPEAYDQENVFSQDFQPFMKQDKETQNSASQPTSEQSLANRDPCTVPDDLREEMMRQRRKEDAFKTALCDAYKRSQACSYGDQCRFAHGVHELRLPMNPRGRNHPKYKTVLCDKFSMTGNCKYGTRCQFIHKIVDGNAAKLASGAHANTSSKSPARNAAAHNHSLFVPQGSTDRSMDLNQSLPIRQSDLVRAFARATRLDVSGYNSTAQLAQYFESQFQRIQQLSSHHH
# HeLa = test: viability loss in HeLa cells – cell-based, 24 h, cherry-picked samples, cytotoxicity control, dose response (AID 504726); assay type: functional; conditions: Homo sapiens;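 further: potency for cytotoxicity as loss of luminescence signal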
# [9] = microbe, parasite or virus in culture; assay type: functional; conditions: Mycobacterium tuberculosis
# [10] = viability loss of HPDE-C7K cells – cell-based, fluorescence, HTS, primary screen (AID 431); assay type: functional; conditions: Homo sapiens
# [11] = HPDE-C7 pancreatic duct cell viability loss – fluorescence, HTS (AID 430); assay type: functional, cell-based; conditions: Homo sapiens
# [12] = viability of PTEN-deleted HCT116 cells – cell-based, HCT116 PTEN knockout, dose response (AID 1047); assay type: functional;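 further: HCT116 colon tumor cells with PTEN knocked out; cells exposed to compound for 60 hours before readout; potency for loss of cell viability measured by luminescence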
# [13] = luciferase reporter signal suppression in cells – H4 neuroglioma cells, luminescence, dose response (AID 1990); assay type: functional, cell-based
# [14] = alpha-synuclein stem-loop luciferase translation blockers – H4 neuroglioma cells, luminescence, confirmation (AID 1988); assay type: functional, cell-based
# [15] = Luminescence Cell-Based Dose Response HTS to Identify Inhibitors of 5'UTR Stem-Loop Driven Prion Protein mRNA Translation in H4 Neuroglioblastoma Cells. [Related pubchem assays: 1827 (Project Summary), 1813 (Primary HTS)]; assay type: functional
# [16] = HEK-293T cell viability reduction – luminescence, B-cell screen hits, cytotoxicity control for BCR NF-kB inhibitor project, dose response (AID 489021); assay type: functional, cell-based;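 further: HEK-293T cells carrying an NF-kB luciferase reporter; cells exposed to compound for about 14 hours before viability readout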
# [17] = viability of HCT116 lacking mutant beta-catenin – cell-based, human colon tumor, dose response (AID 1045); assay type: functional;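 further: HCT116 colon tumor cells with beta catenin knocked out; cells exposed to compound for 60 hours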
# Vero = test: viability of Vero cells under compound – cytotoxicity control for flavivirus capping enzyme inhibitors (AID 588742); assay type: functional; conditions: Chlorocebus sabaeus
# [18] = target: Peroxisome proliferator-activated receptor gamma/Nuclear receptor coactivator 3 (Homo sapiens, UniProt P37231); assay type: functional;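 further: agonist potency for raising coactivator recruitment to the receptor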
# ORF 73 = target: T5, ORF 73 (Human herpesvirus 8, UniProt O40947); test: KSHV LANA DNA-binding disruption – biochemical, fluorescence polarization, cherry-picked samples, dose response (AID 504725); parameters: species or system Human gammaherpesvirus 8;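 further: fluorescence polarization of a labeled DNA duplex reporting LANA DNA binding; potency is for inhibitors that block LANA binding to the DNA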
# T5 sequence (O40947 whole entry): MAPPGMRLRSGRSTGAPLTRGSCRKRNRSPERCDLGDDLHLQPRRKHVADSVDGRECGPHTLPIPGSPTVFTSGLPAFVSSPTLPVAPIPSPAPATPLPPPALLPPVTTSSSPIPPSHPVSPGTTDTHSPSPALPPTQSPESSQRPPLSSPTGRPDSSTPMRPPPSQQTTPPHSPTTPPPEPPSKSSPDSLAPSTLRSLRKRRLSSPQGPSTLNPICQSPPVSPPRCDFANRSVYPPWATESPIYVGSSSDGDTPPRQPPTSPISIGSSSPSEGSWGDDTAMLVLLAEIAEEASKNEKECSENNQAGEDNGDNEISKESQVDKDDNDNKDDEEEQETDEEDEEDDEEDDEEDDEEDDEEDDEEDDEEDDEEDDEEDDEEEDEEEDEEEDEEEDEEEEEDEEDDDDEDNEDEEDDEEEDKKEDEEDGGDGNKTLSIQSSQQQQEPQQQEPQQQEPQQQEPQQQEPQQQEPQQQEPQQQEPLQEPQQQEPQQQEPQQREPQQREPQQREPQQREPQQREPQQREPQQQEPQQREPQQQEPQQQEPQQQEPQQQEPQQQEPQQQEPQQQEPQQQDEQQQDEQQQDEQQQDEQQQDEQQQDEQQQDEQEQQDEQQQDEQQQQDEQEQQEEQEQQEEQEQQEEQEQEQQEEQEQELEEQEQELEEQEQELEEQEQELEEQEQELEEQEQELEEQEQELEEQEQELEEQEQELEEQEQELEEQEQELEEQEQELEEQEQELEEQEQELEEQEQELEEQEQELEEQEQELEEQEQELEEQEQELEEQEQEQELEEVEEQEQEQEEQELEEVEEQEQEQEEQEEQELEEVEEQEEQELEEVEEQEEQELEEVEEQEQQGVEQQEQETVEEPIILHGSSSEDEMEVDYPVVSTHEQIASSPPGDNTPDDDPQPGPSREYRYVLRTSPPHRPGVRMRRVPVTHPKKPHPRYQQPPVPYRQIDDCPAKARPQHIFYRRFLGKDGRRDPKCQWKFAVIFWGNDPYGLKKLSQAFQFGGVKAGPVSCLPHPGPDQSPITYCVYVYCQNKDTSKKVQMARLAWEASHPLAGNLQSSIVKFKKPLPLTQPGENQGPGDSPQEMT
# [19] = target: Peroxisome proliferator-activated receptor gamma/Nuclear receptor coactivator 1 (Homo sapiens, UniProt P37231); assay type: functional;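 further: agonist potency as compounds enhance coactivator SRC-1 recruitment to PPARgamma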
# [20] = target: T6, Endoribonuclease toxin MazF (Escherichia coli K-12, UniProt P0AE70); test: substrate-only fluorescence increase artefacts – biochemical, single-stranded RNase substrate, counter-screen for MazEF activator project, dose response (AID 588502); assay type: functional
# T6 sequence (P0AE70 whole entry): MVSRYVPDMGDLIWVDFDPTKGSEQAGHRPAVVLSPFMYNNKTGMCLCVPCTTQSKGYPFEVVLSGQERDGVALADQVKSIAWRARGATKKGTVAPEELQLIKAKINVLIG
# [21] = target: T7, Corticotropin-releasing factor receptor 2/Corticotropin-releasing factor-binding protein (Homo sapiens, UniProt P24387+Q13324); test: activators of CRF receptor 2 with binding protein – uHTS hits, confirmation (AID 602473); assay type: functional; conditions: read-out: EC50_Mean
# T7 sequence (Q13324 whole entry): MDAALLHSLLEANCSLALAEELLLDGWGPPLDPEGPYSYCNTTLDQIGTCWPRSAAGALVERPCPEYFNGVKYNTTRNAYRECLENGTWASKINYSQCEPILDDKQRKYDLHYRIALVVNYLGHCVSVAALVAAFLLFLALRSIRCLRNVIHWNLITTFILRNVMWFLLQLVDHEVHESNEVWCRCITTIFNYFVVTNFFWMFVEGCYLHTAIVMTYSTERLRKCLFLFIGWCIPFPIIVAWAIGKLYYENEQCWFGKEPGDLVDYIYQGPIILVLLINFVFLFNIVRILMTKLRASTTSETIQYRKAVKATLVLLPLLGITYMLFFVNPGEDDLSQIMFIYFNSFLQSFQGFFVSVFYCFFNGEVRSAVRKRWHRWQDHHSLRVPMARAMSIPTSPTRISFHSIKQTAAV
# T7 sequence (P24387 whole entry): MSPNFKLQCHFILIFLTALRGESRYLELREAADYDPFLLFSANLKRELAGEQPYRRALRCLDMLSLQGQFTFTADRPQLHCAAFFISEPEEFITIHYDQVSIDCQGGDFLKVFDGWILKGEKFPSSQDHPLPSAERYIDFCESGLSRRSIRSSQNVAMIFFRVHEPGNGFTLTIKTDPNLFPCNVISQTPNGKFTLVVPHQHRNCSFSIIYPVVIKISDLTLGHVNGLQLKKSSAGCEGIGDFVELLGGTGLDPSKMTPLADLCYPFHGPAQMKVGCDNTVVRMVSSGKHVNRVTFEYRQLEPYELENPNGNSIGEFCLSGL
# [22] = target: Peroxisome proliferator-activated receptor gamma/Nuclear receptor coactivator 2 (Homo sapiens, UniProt P37231); assay type: functional;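 further: agonist potency for raising coactivator recruitment to the receptor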
# [23] = target: T6, Endoribonuclease toxin MazF; test: activation of MazEF endoribonuclease cleavage – biochemical, fluorescence, single-stranded RNA substrate, uHTS hits, dose response (AID 588481); assay type: functional
# Cytochrome P450 3A4, sequence (P08684 whole entry): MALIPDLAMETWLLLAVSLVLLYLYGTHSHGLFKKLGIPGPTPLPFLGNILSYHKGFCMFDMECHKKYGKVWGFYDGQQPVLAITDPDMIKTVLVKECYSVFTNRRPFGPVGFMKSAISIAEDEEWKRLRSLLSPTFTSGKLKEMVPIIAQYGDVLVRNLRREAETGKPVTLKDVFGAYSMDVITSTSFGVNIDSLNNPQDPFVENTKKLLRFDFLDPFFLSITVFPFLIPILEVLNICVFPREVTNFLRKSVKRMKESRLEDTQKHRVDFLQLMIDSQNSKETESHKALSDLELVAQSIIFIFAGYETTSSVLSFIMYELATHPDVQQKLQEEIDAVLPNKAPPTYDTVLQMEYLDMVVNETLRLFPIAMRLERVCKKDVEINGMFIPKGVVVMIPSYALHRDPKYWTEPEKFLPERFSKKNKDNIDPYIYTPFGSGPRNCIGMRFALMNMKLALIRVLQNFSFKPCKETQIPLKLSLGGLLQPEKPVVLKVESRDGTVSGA
# T1 sequence (P08659 whole entry): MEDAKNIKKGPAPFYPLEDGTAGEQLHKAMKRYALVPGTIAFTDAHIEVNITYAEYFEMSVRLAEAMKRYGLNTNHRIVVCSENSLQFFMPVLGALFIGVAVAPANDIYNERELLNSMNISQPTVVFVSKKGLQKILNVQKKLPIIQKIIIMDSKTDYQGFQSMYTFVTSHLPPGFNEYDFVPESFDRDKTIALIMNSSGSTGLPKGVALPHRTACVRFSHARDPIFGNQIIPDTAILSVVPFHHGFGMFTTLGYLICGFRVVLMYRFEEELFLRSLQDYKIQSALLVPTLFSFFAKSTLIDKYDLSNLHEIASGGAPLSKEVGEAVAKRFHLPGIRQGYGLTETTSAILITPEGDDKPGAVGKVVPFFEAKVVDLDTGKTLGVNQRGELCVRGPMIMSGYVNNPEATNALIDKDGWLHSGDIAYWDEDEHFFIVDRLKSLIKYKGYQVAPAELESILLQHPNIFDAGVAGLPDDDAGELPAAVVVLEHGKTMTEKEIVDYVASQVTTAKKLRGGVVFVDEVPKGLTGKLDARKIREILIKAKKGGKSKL
# Peroxisome proliferator-activated receptor gamma/Nuclear receptor coactivator 2, sequence (P37231 whole entry): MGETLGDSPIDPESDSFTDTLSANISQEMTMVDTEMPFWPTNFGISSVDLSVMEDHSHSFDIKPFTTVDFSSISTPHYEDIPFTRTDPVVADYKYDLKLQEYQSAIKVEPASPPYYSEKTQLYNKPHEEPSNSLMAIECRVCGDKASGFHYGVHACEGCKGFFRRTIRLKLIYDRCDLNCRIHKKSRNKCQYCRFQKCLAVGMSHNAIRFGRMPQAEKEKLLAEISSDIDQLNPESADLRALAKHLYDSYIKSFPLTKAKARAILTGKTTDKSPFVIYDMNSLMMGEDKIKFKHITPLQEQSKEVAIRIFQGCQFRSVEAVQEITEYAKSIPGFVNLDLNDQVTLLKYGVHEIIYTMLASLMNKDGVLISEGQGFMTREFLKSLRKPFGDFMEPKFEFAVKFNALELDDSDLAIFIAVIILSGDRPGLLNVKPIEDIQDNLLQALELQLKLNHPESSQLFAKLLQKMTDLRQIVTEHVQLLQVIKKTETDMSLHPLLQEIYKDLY
# Peroxisome proliferator-activated receptor gamma/Nuclear receptor coactivator 2, sequence (Q15596 whole entry, further chain): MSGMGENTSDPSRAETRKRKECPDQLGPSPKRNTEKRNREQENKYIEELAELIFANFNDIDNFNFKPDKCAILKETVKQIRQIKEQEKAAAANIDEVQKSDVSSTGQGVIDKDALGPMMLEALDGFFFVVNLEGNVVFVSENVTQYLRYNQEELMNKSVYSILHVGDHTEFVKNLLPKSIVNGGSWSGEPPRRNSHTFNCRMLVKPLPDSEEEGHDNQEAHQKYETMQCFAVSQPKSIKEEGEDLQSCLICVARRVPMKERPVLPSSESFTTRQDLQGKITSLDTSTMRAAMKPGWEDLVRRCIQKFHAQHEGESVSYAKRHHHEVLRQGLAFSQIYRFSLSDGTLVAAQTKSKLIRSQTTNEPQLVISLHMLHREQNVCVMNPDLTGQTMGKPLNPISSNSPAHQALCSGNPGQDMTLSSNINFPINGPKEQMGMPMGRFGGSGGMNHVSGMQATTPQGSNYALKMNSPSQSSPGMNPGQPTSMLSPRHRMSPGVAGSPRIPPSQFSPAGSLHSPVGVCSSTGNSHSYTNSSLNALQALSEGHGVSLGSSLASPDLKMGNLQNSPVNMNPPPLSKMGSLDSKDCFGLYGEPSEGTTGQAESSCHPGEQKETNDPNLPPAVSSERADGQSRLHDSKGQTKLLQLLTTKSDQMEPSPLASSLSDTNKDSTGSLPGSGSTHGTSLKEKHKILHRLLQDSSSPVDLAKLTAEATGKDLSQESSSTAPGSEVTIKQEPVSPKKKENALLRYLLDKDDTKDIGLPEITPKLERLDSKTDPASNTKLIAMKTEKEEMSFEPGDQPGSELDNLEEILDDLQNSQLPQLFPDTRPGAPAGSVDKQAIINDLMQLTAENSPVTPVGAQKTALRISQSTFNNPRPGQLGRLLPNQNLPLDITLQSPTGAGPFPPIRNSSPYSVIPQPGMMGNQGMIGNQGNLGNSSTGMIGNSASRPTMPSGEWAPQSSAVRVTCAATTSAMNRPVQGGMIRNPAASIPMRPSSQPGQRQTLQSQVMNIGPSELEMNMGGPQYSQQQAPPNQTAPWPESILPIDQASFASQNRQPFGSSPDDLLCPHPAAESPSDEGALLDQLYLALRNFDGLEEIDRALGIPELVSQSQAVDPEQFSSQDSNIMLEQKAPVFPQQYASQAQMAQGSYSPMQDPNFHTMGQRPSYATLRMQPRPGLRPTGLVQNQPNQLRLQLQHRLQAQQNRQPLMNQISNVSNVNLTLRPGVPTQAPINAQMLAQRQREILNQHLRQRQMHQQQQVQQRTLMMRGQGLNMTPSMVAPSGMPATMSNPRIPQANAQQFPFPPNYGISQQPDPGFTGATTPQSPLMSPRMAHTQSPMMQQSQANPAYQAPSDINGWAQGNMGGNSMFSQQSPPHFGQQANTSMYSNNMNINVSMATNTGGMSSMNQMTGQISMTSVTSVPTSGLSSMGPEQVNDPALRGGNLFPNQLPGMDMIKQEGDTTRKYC
# Peroxisome proliferator-activated receptor gamma/Nuclear receptor coactivator 3, sequence (P37231 whole entry): as the sequence (P37231 whole entry) above
# Peroxisome proliferator-activated receptor gamma/Nuclear receptor coactivator 3, sequence (Q9Y6Q9 whole entry, further chain): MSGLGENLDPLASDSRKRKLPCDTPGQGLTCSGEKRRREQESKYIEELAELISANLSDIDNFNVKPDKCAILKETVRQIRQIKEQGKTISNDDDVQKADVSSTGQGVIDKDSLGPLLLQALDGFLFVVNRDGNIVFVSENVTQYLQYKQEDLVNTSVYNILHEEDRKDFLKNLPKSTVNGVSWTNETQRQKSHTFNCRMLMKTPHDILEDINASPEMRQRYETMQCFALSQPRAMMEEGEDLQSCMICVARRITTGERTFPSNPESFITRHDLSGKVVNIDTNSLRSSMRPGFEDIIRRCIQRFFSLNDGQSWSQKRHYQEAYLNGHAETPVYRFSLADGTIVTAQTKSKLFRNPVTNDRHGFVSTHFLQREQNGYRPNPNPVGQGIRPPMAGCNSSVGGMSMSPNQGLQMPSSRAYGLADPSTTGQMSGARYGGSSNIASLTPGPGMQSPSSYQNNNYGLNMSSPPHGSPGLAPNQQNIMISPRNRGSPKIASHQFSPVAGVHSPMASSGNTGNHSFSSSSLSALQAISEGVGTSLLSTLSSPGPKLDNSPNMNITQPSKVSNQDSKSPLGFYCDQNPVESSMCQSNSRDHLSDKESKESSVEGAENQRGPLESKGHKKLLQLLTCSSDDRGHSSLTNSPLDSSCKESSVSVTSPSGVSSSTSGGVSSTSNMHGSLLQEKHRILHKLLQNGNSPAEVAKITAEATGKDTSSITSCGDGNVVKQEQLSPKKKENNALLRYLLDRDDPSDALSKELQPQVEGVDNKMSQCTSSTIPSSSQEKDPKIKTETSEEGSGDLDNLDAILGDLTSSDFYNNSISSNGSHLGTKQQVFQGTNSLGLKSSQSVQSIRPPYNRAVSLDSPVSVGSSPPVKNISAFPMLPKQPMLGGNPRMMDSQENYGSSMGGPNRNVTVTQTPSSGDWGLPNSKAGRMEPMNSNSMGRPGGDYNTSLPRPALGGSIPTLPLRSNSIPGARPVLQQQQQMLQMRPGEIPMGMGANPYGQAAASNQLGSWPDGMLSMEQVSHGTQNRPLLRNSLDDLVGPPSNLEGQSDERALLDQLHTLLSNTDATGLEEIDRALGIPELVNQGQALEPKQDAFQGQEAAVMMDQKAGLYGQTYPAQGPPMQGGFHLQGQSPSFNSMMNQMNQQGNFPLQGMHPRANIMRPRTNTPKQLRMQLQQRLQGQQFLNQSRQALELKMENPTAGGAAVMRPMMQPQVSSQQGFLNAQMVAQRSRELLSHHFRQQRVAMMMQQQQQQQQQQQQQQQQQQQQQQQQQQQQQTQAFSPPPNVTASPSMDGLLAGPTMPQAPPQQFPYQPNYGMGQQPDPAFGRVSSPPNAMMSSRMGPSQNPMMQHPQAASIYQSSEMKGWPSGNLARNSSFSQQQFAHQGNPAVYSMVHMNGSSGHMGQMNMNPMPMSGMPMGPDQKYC
smiles,measurement,setting,value
C[C@@H]1CCC2[C@](C)(CO)C(O)CC[C@@]2(C)[C@@]12CC[C@](CO)(CCO)O2 (some centres undefined),AC50,Cytochrome P450 3A4,25.1 µM (inconclusive)
Oc1ccc(Cl)c(Cl)c1Cl,AC50,Cytochrome P450 3A4,15.8 µM (inconclusive)
CCCCCc1ccc(-c2ccc(C(=O)O)cc2)nc1,AC50,[1],13.9 µM (active)
same,EC50,[2],43.4 µM (active)
same,EC50,HT-1080,> 50 µM (not active)
same,AC50,[3],14.1 µM (active)
Cc1cc(NS(=O)(=O)c2ccc(Nc3nc(-c4sc(N)nc4C)cs3)cc2)no1,EC50,[4],> 112 µM (not active)
same,EC50,[5],7.76 µM (active)
same,AC50,[6],8.48 µM (active)
same,EC50,[7],> 112 µM (not active)
same,EC50,[8],9.62 µM (active)
same,AC50,HeLa,52.4 µM (active)
CC1CC(C)(C)Nc2ccc(OC(=O)c3ccco3)cc21 (centres undefined),CC50,[9],30 µM (active)
same,EC50,[10],9.77 µM (active)
same,EC50,[2],< 0.2 µM (active)
same,EC50,[11],10.1 µM (active)
same,EC50,[12],8.58 µM (active)
same,EC50,[13],8.25 µM (active)
same,EC50,HT-1080,> 50 µM (not active)
same,EC50,[14],20.1 µM (active)
same,EC50,[15],14.8 µM (active)
same,IC50,[16],50.9 µM (inactive)
same,EC50,[17],8.18 µM (active)
same,CC50,Vero,> 40 µM (active)
Clc1ccc(-c2nnc3sc(-c4ccc(Br)o4)nn23)cc1,EC50,[18],> 79.4 µM (not active)
same,AC50,ORF 73,27.1 µM (active)
same,EC50,[19],> 79.4 µM (not active)
same,EC50,[20],> 99 µM (inactive)
same,EC50,[21],> 53 µM (inactive)
same,EC50,[22],39.7 µM (not active)
same,EC50,[23],> 99 µM (inactive)
CN(C)S(=O)(=O)c1cccc(N2C(=O)CC3(CCCCC3)CC2=O)c1,AC50,ORF 73,76.9 µM (active)
same,AC50,HeLa,> 350 µM (inactive)
CC(C)=CCC1=C(O)C(=O)c2ccccc2C1=O [LAPACHOL],AC50,Cytochrome P450 3A4,25.1 µM (inconclusive)
